The values below come from patent US20230340011A1 (Asteroid Therapeutics, priority 2022, published 2023).

The target in test [1] is T1, LXRβ (Homo sapiens (Human), UniProt P55055). Description: LXRβ PPI (category A-D, Tables 1 and 3). It counts as biochemical. The settings on record: Table 3, trans-AB examples.
Test [2] has as its target T2, SREBP-2 (Homo sapiens (Human), UniProt Q12772). Description: SREBP-2 IC50 (category A-D, Tables 1 and 3). The following applies: Table 3, trans-AB examples. The format is cell-based.
Test [3] deals with T2, SREBP-2. Description: In vitro assay SREBP-2: PathHunter U2OS SREBP-2 Nuclear Translocation Cell Line, U18666A-stimulated. The settings on record: PathHunter U2OS SREBP-2 nuclear translocation cells, U18666A 10 μM, overnight (16 hours). The format is cell-based.
For test [4], the target named is T1, LXRβ. Description: In vitro assay LXRβ: PathHunter NHR CHO cells, LXRβ / Steroid Receptor Co-activator Peptide enzyme fragment complementation. It counts as cell-based. The following applies: PathHunter NHR CHO cells, full-length human LXRβ and SRCP, chemiluminescent signal; read-out: LXRβ PPI. The method in brief:
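Co-activator recruitment measured by chemiluminescence after signal generation. The CHO line carries full-length human LXRβ tagged with ProLink and an SRCP–enzyme acceptor fusion in the nucleus; cells sat overnight at 37° C before testing, in charcoal-dextran filtered serum medium with 1% final vehicle.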

By pIC50 is commonly meant the IC50 on a negative log10 scale, so that one unit is a factor of ten.

pEC50, pIC50: −log10 of the molar value.

T1 sequence (P55055 whole entry): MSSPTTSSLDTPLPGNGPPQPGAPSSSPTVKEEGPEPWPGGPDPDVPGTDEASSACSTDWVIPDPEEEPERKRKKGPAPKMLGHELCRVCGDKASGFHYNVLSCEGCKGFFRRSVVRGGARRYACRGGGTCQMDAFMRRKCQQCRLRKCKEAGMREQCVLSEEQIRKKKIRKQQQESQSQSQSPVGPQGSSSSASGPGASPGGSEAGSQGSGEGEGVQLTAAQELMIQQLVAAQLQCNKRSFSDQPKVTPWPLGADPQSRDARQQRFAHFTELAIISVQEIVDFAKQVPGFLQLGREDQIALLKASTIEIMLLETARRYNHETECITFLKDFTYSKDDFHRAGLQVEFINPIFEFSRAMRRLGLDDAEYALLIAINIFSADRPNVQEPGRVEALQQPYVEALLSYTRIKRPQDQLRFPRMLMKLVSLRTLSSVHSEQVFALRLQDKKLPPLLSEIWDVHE

For the molecule `CCON(C)C(=O)CC[C@@H](C)[C@H]1CC[C@H]2[C@@H]3CC=C4C[C@@H](O)CC[C@]4(C)[C@H]3CC[C@]12C` [Example 10, (R)—N-ethoxy-4-((3S,8S,9S,10R,13R,14S,17R)-3-hydroxy-10,13-dimethyl-2,3,4,7,8,9,10,11,12,13,14,15,16,17-tetradecahydro-1H-cyclopenta[a]phenanthren-17-yl)-N-methylpentanamide], the “LXRβ PPI” value in test [1] is listed as “B (250 nM-1000 nM)”. Further, the pIC50 in test [2] and in test [3] was greater than 6.60 throughout.

For `CCCCON(C)C(=O)CC[C@@H](C)[C@H]1CC[C@H]2[C@@H]3CC=C4C[C@@H](O)CC[C@]4(C)[C@H]3CC[C@]12C` [Example 16], the pEC50 in test [4] is 5.00 to 6.00. Also, the “LXRβ PPI” value in test [1] is given as “B (250 nM-1000 nM)”. In test [2], the pIC50 was greater than 6.60.

Take `C=C[C@@](O)(CC[C@@H](C)[C@H]1CC[C@H]2[C@@H]3CC=C4C[C@@H](O)CC[C@]4(C)[C@H]3CC[C@]12C)C(F)(F)F` [Example 19, (3S,8S,9S,10R,13R,14S,17R)-17-((2R,5S)-5-hydroxy-5-(trifluoromethyl)hept-6-en-2-yl)-10,13-dimethy12,3,4,7,8,9,10,11,12,13,14,15,16,17-tetradecahydro-1H-cyclopenta[a]phenanthren-3-ol]: the pEC50 in test [4] is 5.00 to 6.00. Besides, in test [1], the “LXRβ PPI” value is listed as “D (>10000 nM)”. The pIC50 in test [2] and in test [3] was greater than 6.60 throughout.

As for `C=C[C@](O)(CC[C@@H](C)[C@H]1CC[C@H]2[C@@H]3CC=C4C[C@@H](O)CC[C@]4(C)[C@H]3CC[C@]12C)C(F)(F)F` [Example 20, (3S,8S,9S,10R,13R,14S,17R)-17-((2R,5R)-5-hydroxy-5-(trifluoromethyl)hept-6-en-2-yl)-10,13-dimethyl-2,3,4,7,8,9,10,11,12,13,14,15,16,17-tetradecahydro-1H-cyclopenta[a]phenanthren-3-ol], in test [4], the pEC50 was less than 5.00. The “LXRβ PPI” value in test [1] was “D (>10000 nM)”. The pIC50 in test [2] and in test [3] was greater than 6.60 in each case.

`CC[C@@](O)(CC[C@@H](C)[C@H]1CC[C@H]2[C@@H]3CC=C4C[C@@H](O)CC[C@]4(C)[C@H]3CC[C@]12C)C(F)(F)F` [Example 21, (3S,8S,9S,10R,13R,14S,17R)-17-((2R,5R)-5-hydroxy-5-(trifluoromethyl)heptan-2-yl)-10,13-dimethyl-2,3,4,7,8,9,10,11,12,13,14,15,16,17-tetradecahydro-1H-cyclopenta(a)phenanthren-3-ol]: the “LXRβ PPI” value in test [1] is recorded as “C (1000-10000 nM)”. Further, the pIC50 in test [2] and in test [3] was greater than 6.60 in each case.

Take `CC[C@](O)(CC[C@@H](C)[C@H]1CC[C@H]2[C@@H]3CC=C4C[C@@H](O)CC[C@]4(C)[C@H]3CC[C@]12C)C(F)(F)F` [Example 22, (3S,8S,9S,10R,13R,14S,17R)-17-((2R,5S)-5-hydroxy-5-(trifluoromethyl)heptan-2-yl)-10,13-dimethyl-2,3,4,7,8,9,10,11,12,13,14,15,16,17-tetradecahydro-1H-cyclopenta(a)phenanthren-3-ol]: the “LXRβ PPI” value in test [1] is “B (250 nM-1000 nM)”. Further, the pIC50 was greater than 6.60 in test [2] and 6.00 to 6.60 in test [3].

On to `C[C@H](CC[C@](O)(C1CC1)C(F)(F)F)[C@H]1CC[C@H]2[C@@H]3CC=C4C[C@@H](O)CC[C@]4(C)[C@H]3CC[C@]12C` [Example 23, (3S,8S,9S,10R,13R,14S,17R)-17-((2R,5s)-5-cyclopropyl-6,6,6-trifluoro-5-hydroxyhexan-2-yl)-10,13-dimethyl-2,3,4,7,8,9,10,11,12,13,14,15,16,17-tetradecahydro-1H-cyclopenta(a)phenanthren-3-ol], for which the “LXRβ PPI” value in test [1] was “A (<1 nM to 250 nM)”. Further, the pIC50 in test [2] and in test [3] was greater than 6.60 in each case.

With `C[C@H](CC[C@@](O)(C1CC1)C(F)(F)F)[C@H]1CC[C@H]2[C@@H]3CC=C4C[C@@H](O)CC[C@]4(C)[C@H]3CC[C@]12C` [Example 24, (3S,8S,9S,10R,13R,14S,17R)-17-((2R,5R)-5-cyclopropyl-6,6,6-trifluoro-5-hydroxyhexan-2-yl)-10,13-dimethyl-2,3,4,7,8,9,10,11,12,13,14,15,16,17-tetradecahydro-1H-cyclopenta(a)phenanthren-3-ol], the pIC50 in test [2] and in test [3] was 6.00 to 6.60 throughout.

In the case of `C[C@H](CC[C@@](O)(C1CCC1)C(F)(F)F)[C@H]1CC[C@H]2[C@@H]3CC=C4C[C@@H](O)CC[C@]4(C)[C@H]3CC[C@]12C` [Example 26, (3S,8S,9S,10R,13R,14S,17R)-17-((2R,5R)-5-cyclobutyl-6,6,6-trifluoro-5-hydroxyhexan-2-yl)-10,13-dimethyl-2,3,4,7,8,9,10,11,12,13,14,15,16,17-tetradecahydro-1H-cyclopenta[a]phenanthren-3-ol], the “LXRβ PPI” value in test [1] is on record as “B (250 nM-1000 nM)”. Further, the negative-log IC50 (pIC50) in test [2] and in test [3] was 6.00 to 6.60 in each case.

Regarding `C[C@H](CCC(=O)N1CC[C@@H](CO)O1)[C@H]1CC[C@H]2[C@@H]3CC=C4C[C@@H](O)CC[C@]4(C)[C@H]3CC[C@]12C` [Example 42, (R)-4-((3S,8S,9S,10R,13R,14S,17R)-3-hydroxy-10,13-dimethyl-2,3,4,7,8,9,10,11,12,13,14,15,16,17-tetradecahydro-1H-cyclopenta[a]-phenanthren-17-yl)-1-((S)-5-(hydroxymethyl)isoxazolidin-2-yl) pentan-1-one], in test [1], the “LXRβ PPI” value is recorded as “D (>10000 nM)”. Moreover, the pIC50 was greater than 6.60 in test [2] and 6.00 to 6.60 in test [3].

For “(R)-4-((3S,8S,9S,10R,13R,14S,17R)-3-hydroxy-10,13-dimethyl-2,3,4,7,8,9,10,11,12,13,14,15,16,17-tetradecahydro-1H-cyclopenta[a]phenanthren-17-yl)-N-methyl-N-propoxypentanamide [Example 12]”, in test [1], the “LXRβ PPI” value is listed as “D (>10000 nM)”. In test [2], this molecule had a pIC50 greater than 6.60.
